Here are results for 22 molecules from patent US10947222B2, “Indole derivatives useful as inhibitors of diacylglyceride O-acyltransferase 2” (Merck Sharp & Dohme Corp., priority 2016, dated 2021).

human DGAT2 (hDGAT2), sequence (Q96PD7 whole entry): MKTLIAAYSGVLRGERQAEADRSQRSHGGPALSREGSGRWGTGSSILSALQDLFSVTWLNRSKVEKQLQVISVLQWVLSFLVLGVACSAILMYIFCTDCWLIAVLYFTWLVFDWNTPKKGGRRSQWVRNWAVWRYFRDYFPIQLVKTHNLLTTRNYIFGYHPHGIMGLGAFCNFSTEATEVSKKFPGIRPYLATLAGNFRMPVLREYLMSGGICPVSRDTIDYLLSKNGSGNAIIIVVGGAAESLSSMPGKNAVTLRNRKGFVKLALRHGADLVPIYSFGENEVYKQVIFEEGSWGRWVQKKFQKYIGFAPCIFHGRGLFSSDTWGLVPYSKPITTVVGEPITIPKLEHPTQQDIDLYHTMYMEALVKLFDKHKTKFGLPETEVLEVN

In this test the target is human DGAT2 (hDGAT2) (Homo sapiens (Human), UniProt Q96PD7). Briefly: DGAT2 enzymatic activity assay (triolein formation, LC/MS/MS). The class given is biochemical. The note with it: Sf-9 membrane prep expressing hDGAT2; 25 μM diolein, 10 μM oleoyl-CoA; triolein by LC/MS/MS. The procedure:
Sf-9 insect cells were maintained in Grace's insect cell culture medium with 10% heated-inactivated fetal bovine serum, 1% Pluronic F-68 and 0.14 μg/ml Kanamycine sulfate in Erlenmeyer flasks at 28° C. in a shaker incubator. After infection with untagged baculovirus expressing human DGAT2 (hDGAT2) at multiplicity of infection (MOI) 0.1 for 48 hours, cells were harvested. Cell pellets were suspended in buffer containing 10 mM Tris-HCl (pH 7.5), 1 mM EDTA (pH 8.0), 250 mM sucrose and Complete Protease Inhibitor Cocktail (Roche Diagnostics Corp., Indianapolis, Ill.), and sonicated on ice. Membrane fractions were isolated by ultracentrifugation (100,000×g pellet), resuspended in the same buffer, and frozen (−80° C.) for later use. The protein concentration was determined with the BCA Protein Assay kit (Pierce Biotechnology Inc., Rockford, Ill.). Expression of protein levels was analyzed by immunoblotting with goat polyclonal DGAT2 antibody C-15 and donkey anti-goat IgG HRP (Santa Cruz Biotechnology, Inc., Santa Cruz, Calif.) followed by detection with ECL reagent (GE Healthcare, Piscataway, N.J.).
LC/MS/MS analyses were performed using Thermal Fisher's LX4-TSQ Vantage system. This system consists of an Agilent binary high-performance liquid chromatography (HPLC) pumps and a TSQ Vantage triple quadrupole MS/MS instrument. For each sample, 2 μL samples from the top organic layer of in-plate liquid-liquid extraction were injected onto a Thermo Betabasic C4 column (2.1 mm×20 mm, 5 μm particle size). The samples were then eluted using the following conditions; mobile phase: methanol/water with 0.1% ammonium format=92/8 (v/v), flow rate: 1 mL/min, temperature: 25 C. Data was acquired in positive mode using a heated electrospray ionization (HESI) interface. The operational parameters for the TSQ Vantage MS/MS instrument were a spray voltage of 3000 V, capillary temperature of 280° C., vaporizer temperature 400° C., shealth gas 60 arbitrary unit, Aux gas 40 arbitrary units, S-lens 113 and collision gas 0.16 Pascals. […] (SRM) chromatograms of triolein (Q1:902.9>Q3:602.3) and internal standard (Q1:902.9>Q3:602.3) were collected for 40 sec. The peak area was integrated by Xcalibur Quan software. The ratio between the triolein generated in the reaction and spiked in internal standard was used to generate percentage inhibition and IC50 values. Compound percentage inhibition was calculated by the following formula: Inhibition %/=1−[(compound response−low control)/(high control−low control)]×100%. Potent compounds were titrated and IC50 were calculated by 4 parameter sigmoidal curve fitting formula.
DGAT2 activity was determined by measuring the amount of enzymatic product triolein (1,2,3-Tri(cis-9-octadecenoyl)glycerol) using the membrane prep mentioned above. The assay was carried out in deep well 384 plates in a final volume of 40 μL at rt. The assay mixture contained the following: assay buffer (100 mM Tris.Cl, pH 7.0, 20 mM MgCl2, 5% ethanol), 25 μM of diolein, 10 μM of oleoyl-CoA and 10 ng/μL of DGAT2 membrane.
`COC(=O)c1cccc(-c2cn(-c3ccc(F)cc3)c3cc(C(=O)NC4CCS(=O)(=O)C4)ccc23)c1` (racemic) [Example 32, methyl 3-{6-[(1,1-dioxidotetrahydrothiophen-3-yl)carbamoyl]-1-(4-fluorophenyl)-1H-indol-3-yl}benzoate (racemic)] had an IC50 of 0.0032 µM. In the case of `O=C(NC1CCS(=O)(=O)C1)c1ccc2c(-c3cccc(-n4cccn4)c3)cn(-c3ccc(F)cc3)c2c1` (racemic) [Example 38, N-(1,1-dioxidotetrahydrothiophen-3-yl)-1-(4-fluorophenyl)-3-[3-(1H-pyrazol-1-yl)phenyl]-1H-indole-6-carboxamide (racemic)] it was 0.015 µM. Next, `O=C(NC1CCS(=O)(=O)C1)c1ccc2c(-c3cccc(OC(F)F)c3)cn(-c3ncc(F)cn3)c2c1` (single isomer, unassigned; enantiomer a) [Example 19-A, 3-(3-(difluoromethoxy)phenyl)-N-(1,1-dioxidotetrahydrothiophen-3-yl)-1-(5-fluoropyrimidin-2-yl)-1H-indole-6-carboxamide (enantiomer A)]: 0.0016 µM; `O=C(NC1CCS(=O)(=O)C1)c1ccc2c(-c3ccccc3OC(F)F)cn(-c3ccc(F)cc3)c2c1` (racemic) [Example 42, 3-[2-(difluoromethoxy)phenyl]-N-(1,1-dioxidotetrahydrothiophen-3-yl)-1-(4-fluoropheny)-1H-indole-6-carboxamide (racemic)]: 0.108 µM; `O=C(NC1CCS(=O)(=O)C1)c1ccc2c(-c3cccc(O)c3)cn(-c3ccc(F)cc3)c2c1` (racemic) [Example 59, N-(1,1-dioxidotetrahydrothiophen-3-yl)-1-(4-fluorophenyl)-3-(3-hydroxyphenyl)-1H-indole-6-carboxamide (racemic)]: 0.492 µM. For the molecule `CC1(NC(=O)c2ccc3c(-c4cccc(OC(F)F)c4)cn(-c4ccc(F)cn4)c3c2)CCS(=O)(=O)C1` (single isomer, unassigned; enantiomer a) [Example 10-A, 3-(3-(difluoromethoxy)phenyl)-1-(5-fluoropyridin-2-yl)-N-(3-methyl-1,1-dioxidotetrahydrothiophen-3-yl)-1H-indole-6-carboxamide (enantiomer A)], the IC50 came to 0.00094 µM. On to `Cc1c(-c2cccc(OC(F)F)c2)c2ccc(C(=O)NC3(C)CCS(=O)(=O)C3)cc2n1-c1ccc(F)cc1` (racemic) [Example 28, 3-(3-(difluoromethoxy)phenyl)-1-(4-fluorophenyl)-2-methyl-N-(3-methyl-1,1-dioxidotetrahydrothiophen-3-yl)-1H-indole-6-carboxamide (racemic)], for which the IC50 is 0.017 µM. In the case of `CC1(NC(=O)c2ccc3c(-c4ccccc4Cl)cn(-c4ccc(F)cc4)c3c2)CCS(=O)(=O)C1` (racemic) [Example 1, 3-(2-chlorophenyl)-1-(4-fluorophenyl)-N-(3-methyl-1,1-dioxidotetrahydrothiophen-3-yl)-1H-indole-6-carboxamide] it was 0.0088 µM.

`O=C(NC1CCS(=O)(=O)C1)c1ccc2c(-c3c(F)cccc3F)cn(-c3ccc(F)cc3)c2c1` (racemic) [Example 48, 3-(2,6-difluorophenyl)-N-(1,1-dioxidotetrahydrothiophen-3-yl)-1-(4-fluorophenyl)-1H-indole-6-carboxamide (racemic)] returned an IC50 of 0.053 µM. In the case of `O=C(NC1CCS(=O)(=O)C1)c1ccc2c(-c3cc(Cl)cc(Cl)c3)cn(-c3ccc(F)cc3)c2c1` (racemic) [Example 41, 3-(3,5-dichlorophenyl)-N-(1,1-dioxidotetrahydrothiophen-3-yl)-1-(4-fluorophenyl)-1H-indole-6-carboxamide (racemic)] it was 0.088 µM; in that of `O=C(NC1CCS(=O)(=O)C1)c1ccc2c(-c3ccccc3Cl)cn(-c3ccc(F)cc3)c2c1` (racemic) [Example 2, 3-(2-Chlorophenyl)-N-(1,1-dioxidotetrahydrothiophen-3-yl)-1-(4-fluorophenyl)-1H-indole-6-carboxamide], 0.066 µM.

With `O=C(NC1CCS(=O)(=O)C1)c1ccc2c(-c3ccccc3)cn(-c3ccc(F)cc3)c2c1` (racemic) [Example 43, N-(1,1-dioxidotetrahydrothiophen-3-yl)-1-(4-fluorophenyl)-3-phenyl-1H-indole-6-carboxamide (racemic)], the IC50 was found to be 0.055 µM. Next, `Cc1c(-c2ccccc2Cl)c2ccc(C(=O)NC3(C)CCS(=O)(=O)C3)cc2n1-c1ccc(F)cc1` (single isomer, unassigned; enantiomer a) [Example 8-A, 3-(2-chlorophenyl)-1-(4-fluorophenyl)-2-methyl-N-(3-methyl-1,1-dioxidotetrahydrothiophen-3-yl)-1H-indole-6-carboxamide (Enantiomer A)]: 0.934 µM; `O=C(N[C@H](CO)c1ccc(C(F)(F)F)nc1)c1ccc2c(-c3ccccc3Cl)cn(-c3ccc(F)cc3)c2c1` [Example 5, (S)-3-(2-chlorophenyl)-1-(4-fluorophenyl)-N-(2-hydroxy-1-(6-(trifluoromethyl)pyridin-3-yl)ethyl)-1H-indole-6-carboxamide]: 0.19 µM; `O=C(NC1CCS(=O)(=O)C1)c1ccc2c(-c3cccc(Cl)c3Cl)cn(-c3ccc(F)cc3)c2c1` (racemic) [Example 44, 3-(2,3-dichlorophenyl)-N-(1,1-dioxidotetrahydrothiophen-3-yl)-1-(4-fluorophenyl)-1H-indole-6-carboxamide (racemic)]: 0.019 µM. As for `O=C(NC1CCS(=O)(=O)C1)c1ccc2c(-c3cccc(OC(F)F)c3)cn(-c3ccc(F)cc3)c2c1` (single isomer, unassigned; enantiomer a) [Example 27-A, 3-(3-(difluoromethoxy)phenyl)-N-(1,1-dioxidotetrahydrothiophen-3-yl)-1-(4-fluorophenyl)-1H-indole-6-carboxamide (enantiomer A)], 0.00052 µM corresponded to half-maximal inhibition (IC50). In the case of `O=C(NC1CCS(=O)(=O)C1)c1ccc2c(-c3ccccc3F)cn(-c3ccc(F)cc3)c2c1` (racemic) [Example 40, N-(1,1-dioxidotetrahydrothiophen-3-yl)-3-(2-fluorophenyl)-1-(4-fluorophenyl)-1H-indole-6-carboxamide (racemic)] it was 0.026 µM; in that of `Cn1ccc2cc(-c3cn(-c4ccc(F)cc4)c4cc(C(=O)NC5CCS(=O)(=O)C5)ccc34)ccc21` (racemic) [Example 51, N-(1,1-dioxidotetrahydrothiophen-3-yl)-1-(4-fluorophenyl)-1′-methyl-1H,1′H-3,5′-biindole-6-carboxamide (racemic)], 0.102 µM.

With `Cc1noc(C)c1-c1cn(-c2ccc(F)cc2)c2cc(C(=O)NC3CCS(=O)(=O)C3)ccc12` (racemic) [Example 53, 3-(3,5-dimethylisoxazol-4-yl)-N-(1,1-dioxidotetrahydrothiophen-3-yl)-1-(4-fluorophenyl)-1H-indole-6-carboxamide (racemic)], the IC50 stood at 0.502 µM. Next, `CC1(NC(=O)c2ccc3c(-c4cccc(C5CC5)c4)cn(-c4ccc(F)cn4)c3c2)CCS(=O)(=O)C1` (single isomer, unassigned; enantiomer b) [Example 12-B, 3-(3-cyclopropylphenyl)-1-(5-fluoropyridin-2-yl)-N-(3-methyl-1,1-dioxidotetrahydrothiophen-3-yl)-1H-indole-6-carboxamide (enantiomer B)]: 0.00073 µM.

In turn, `COCC(C)NC(=O)c1ccc2c(-c3ccccc3Cl)cn(-c3ccc(F)cc3)c2c1` (racemic) [Example 3, 3-(2-chlorophenyl)-1-(4-fluorophenyl)-N-(1-methoxypropan-2-yl)-1H-indole-6-carboxamide (racemic)] had an IC50 of 0.344 µM. As to `O=C(NC1CCS(=O)(=O)C1)c1ccc2c(-c3cccc(C4CC4)c3)cn(-c3ccc(F)cc3)c2c1` (racemic) [Example 46, 3-(3-cyclopropylphenyl)-N-(1,1-dioxidotetrahydrothiophen-3-yl)-1-(4-fluorophenyl)-1H-indole-6-carboxamide (racemic)], the IC50 amounted to 0.0021 µM.
